Results taken from patent US20240350643A1, “PROTEIN DEGRADATION AGENT” (SUZHOU KINTOR PHARMACEUTICALS, INC., priority 2021, published 2024).

Tests used:
c-Myc protein = biological target: T1, c-Myc protein (Homo sapiens, UniProt P01106); assay: Ability of compounds to degrade c-Myc protein in HL60 cells (ELISA); format: cell-based; conditions: HL-60, 1 μM compound, 24 h, read-out: HL60 cells Protein degradation rate (1 μM)
T1 construct: endogenous in cells; host or cells: HL60 cells

HL60 cells = assay: Anti-proliferation ability of compounds on HL60 cells (CTG); format: cell-based, human; conditions: Homo sapiens, HL-60, 72 h, 3 days, CellTiter-Glo, read-out: HL60 cells Proliferation inhibitory activity
Outline: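 HL60 cells (20000/well) exposed to serially diluted compounds (0.1% DMSO vehicle control) for 3 days. Viability read by CellTiter-Glo luminescence; IC50 fitted from inhibition rates.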

T1 sequence (P01106 whole entry): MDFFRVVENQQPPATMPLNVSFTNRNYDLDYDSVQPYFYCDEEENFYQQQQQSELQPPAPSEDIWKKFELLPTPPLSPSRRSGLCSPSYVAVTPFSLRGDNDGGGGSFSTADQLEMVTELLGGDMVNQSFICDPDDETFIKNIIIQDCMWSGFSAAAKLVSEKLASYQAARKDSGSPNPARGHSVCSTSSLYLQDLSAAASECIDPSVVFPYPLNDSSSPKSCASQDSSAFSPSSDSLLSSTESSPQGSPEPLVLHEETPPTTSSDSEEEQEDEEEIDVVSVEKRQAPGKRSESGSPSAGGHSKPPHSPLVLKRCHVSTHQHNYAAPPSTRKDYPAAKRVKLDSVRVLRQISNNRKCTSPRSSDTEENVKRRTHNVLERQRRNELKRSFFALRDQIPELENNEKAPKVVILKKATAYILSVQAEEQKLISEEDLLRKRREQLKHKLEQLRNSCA

Row | inhibition at 1 µM (c-Myc protein) [%] | IC50 (HL60 cells) [nM] | Structure (SMILES)
1 | 60 to 90 | 11.9 ± 5.5 | CN(CCc1ccc(Cl)c(Cl)c1)Cc1ccc(CNCc2ccc3c(c2)C(=O)N(C2CCC(=O)NC2=O)C3=O)cc1 (stereo not drawn) [A184]
2 | 60 to 90 | 7.5 ± 1.1 | CN(CCc1ccc(Cl)cc1Cl)Cc1ccc(CNCc2ccc3c(c2)C(=O)N(C2CCC(=O)NC2=O)C3=O)cc1 (stereo not drawn) [A185]
3 | 60 to 90 | 32.1 ± 1.3 | O=C(Cc1nccc2ccccc12)NCc1ccc(CNCc2ccc3c(c2)C(=O)N(C2CCC(=O)NC2=O)C3=O)cc1 (stereo not drawn) [A186]
4 | 60 to 90 | 9.2 ± 0.5 | O=C(Cc1cccc2cccnc12)NCc1ccc(CNCc2ccc3c(c2)C(=O)N(C2CCC(=O)NC2=O)C3=O)cc1 (stereo not drawn) [A187]
5 | 30 to 60 | 279 ± 33.8 | CN(Cc1ccc(CNC(=O)Cc2nccc3ccccc23)cc1)Cc1ccc2c(c1)C(=O)N(C1CCC(=O)NC1=O)C2=O (stereo not drawn) [A188]
6 | 60 to 90 | 5.6 ± 1 | O=C(Cc1cccc2ccccc12)NCc1ccc(CNCc2ccc3c(c2)C(=O)N(C2CCC(=O)NC2=O)C3=O)c(F)c1 (stereo not drawn) [A189]
7 | 60 to 90 | 1.7 ± 0.6 | O=C(Cn1c2ccccc2c2cccnc21)NCc1ccc(CNCc2ccc3c(c2)C(=O)N(C2CCC(=O)NC2=O)C3=O)c(F)c1 (stereo not drawn) [A190]
8 | 60 to 90 | 16.9 ± 2.2 | O=C(Cc1cccc2ccccc12)NCc1ccc(COCc2ccc3c(c2)C(=O)N(C2CCC(=O)NC2=O)C3=O)cc1 (stereo not drawn) [A191]
9 | 60 to 90 | 7.7 ± 2.1 | O=C(Cn1c2ccccc2c2cccnc21)NCc1ccc(COCc2ccc3c(c2)C(=O)N(C2CCC(=O)NC2=O)C3=O)cc1 (stereo not drawn) [A192]
10 | 60 to 90 | 0.6 ± 0.1 | O=C(Cc1cccc2ccccc12)NCc1ccc(CNCc2ccc3c(c2)CN(C2CCC(=O)NC2=O)C3=O)cc1 (stereo not drawn) [A193]
11 | 60 to 90 | 0.14 ± 0.01 | O=C(Cn1c2ccccc2c2cccnc21)NCc1ccc(CNCc2ccc3c(c2)CN(C2CCC(=O)NC2=O)C3=O)cc1 (stereo not drawn) [A194]
12 | 60 to 90 | 1.4 ± 0.01 | O=C(Cc1c(F)ccc2ccccc12)NCc1ccc(CNCc2ccc3c(c2)CN(C2CCC(=O)NC2=O)C3=O)cc1 (stereo not drawn) [A195]
13 | 60 to 90 | 0.5 ± 0.1 | O=C(Cc1cccc2ccccc12)NCc1ccc(CNCc2ccc3c(c2)CN(C2CCC(=O)NC2=O)C3=O)c(F)c1 (stereo not drawn) [A196]
14 | 60 to 90 | 3.3 ± 0.6 | O=C1CCC(N2Cc3cc(NC(=O)C[C@H]4CC[C@H](NC(=O)NCc5cccc6ccccc56)CC4)ccc3C2=O)C(=O)N1 (stereo partly drawn) [A199]
15 | 60 to 90 | 2.5 ± 1 | O=C(CN1CCCc2ccccc21)NCc1ccc(CNC(=O)c2ccc3c(c2)CN(C2CCC(=O)NC2=O)C3=O)cc1 (stereo not drawn) [A200]
16 | 60 to 90 | 2 ± 0.9 | O=C(CN1CCCc2ccccc21)NCc1ccc(CC(=O)Nc2ccc3c(c2)CN(C2CCC(=O)NC2=O)C3=O)cc1 (stereo not drawn) [A201]
17 | 60 to 90 | 6.6 ± 0.8 | O=C(CN1CCc2cccnc21)NCc1ccc(CNC(=O)c2ccc3c(c2)CN(C2CCC(=O)NC2=O)C3=O)cc1 (stereo not drawn) [A203]
18 | 60 to 90 | 0.2 ± 0.1 | CN(CCc1cccc2ccccc12)Cc1ccc(CC(=O)Nc2ccc3c(c2)CN(C2CCC(=O)NC2=O)C3=O)cc1 (stereo not drawn) [A205]
19 | 60 to 90 | 0.5 | O=C(Cn1c2ccccc2c2cccnc21)NCc1ccc(CNC(=O)c2ccc3c(c2)CN(C2CCC(=O)NC2=O)C3=O)cc1OC(F)(F)F (stereo not drawn) [A208]
20 | 60 to 90 | 1.2 ± 0.1 | O=C1CCC(N2Cc3cc(C(=O)NCc4ccc(CNc5nccc(-c6cccc7ccccc67)n5)cc4)ccc3C2=O)C(=O)N1 (stereo not drawn) [A220]
21 | 60 to 90 | 1.7 ± 1.3 | O=C(Cn1c2ccccc2c2cccnc21)NCc1ccc(CNC(=O)c2ccc3c(c2)CN([C@H]2CCC(=O)NC2=O)C3=O)cc1 [A224]
22 | 60 to 90 | 1.3 ± 0.2 | O=C(Cn1c2ccccc2c2cccnc21)NCc1ccc(CNC(=O)c2ccc3c(c2)CN([C@@H]2CCC(=O)NC2=O)C3=O)cc1 [A225]
23 | 30 to 60 | 0.6 ± 0.1 | NCC(=O)OCN1C(=O)CCC(N2Cc3cc(C(=O)NCc4ccc(CNC(=O)Cn5c6ccccc6c6cccnc65)cc4)ccc3C2=O)C1=O (stereo not drawn) [A227]
24 | 60 to 90 | 5 ± 0.2 | O=C(Cn1c2ccccc2c2cccnc21)NCc1ccc(CNC(=O)c2ccc3c(c2)CN(C2CCC(=O)N(COP(=O)(O)O)C2=O)C3=O)cc1 (stereo not drawn) [A228]
